The values that follow come from US7060822B1, “2-pyrazolin-5-ones” (Abbott GmbH & Co. KG, priority 1999, dated 2006).

A value given as a limit tells only on which side of the number the result lay.

For orientation: melting point means the temperature, or range, at which the solid turns liquid. `O=C1NN=C(C2CC2)C1=Cc1ccc(-c2ccccc2)[nH]1` [Example 93, 3-Cyclopropyl-4-[(5-phenylpyrrol-2-yl)methylene]-2-pyrazolin-5-one] had a melting point of 208 to 210 °C.
Then `O=C1NN=C(Nc2ccc(Cl)cc2)C1=Cc1ccc[nH]1` [Example 18, 3-(4-Chlorophenylamino)-4-[(pyrrol-2-yl)methylene]-2-pyrazolin-5-one], with 245 to 247 °C; and `Cc1[nH]c(C=C2C(=O)NN=C2c2cnccn2)c(C)c1C(=O)O` [Example 118, 4-[(4-Carboxy-3,5-dimethylpyrrol-2-yl)methylene]-3-pyrazinyl-2-pyrazolin-5-one], with 225 to 228 °C.
For `CCOC1=NNC(=O)C1=Cc1[nH]cc(C)c1CCC(=O)O` [Example 157, 4-{[3-(2-Carboxyethyl)-4-methylpyrrol-2-yl]methylene}-3-ethoxy-2-pyrazolin-5-one], the melting point fell in the range of 255 to 257 °C.
The molecule `O=C1NN=C(Nc2ccc(F)cc2)C1=Cc1c[nH]c2ccccc12` [Example 242, 3-(4-Fluorophenylamino)4-[(indol-3-yl)methylene]--2-pyrazolin-5-one] showed a melting point of 251 to 252 °C.
In turn, `CCN(CC)CCc1c(C)[nH]c(C=C2C(=O)NN=C2c2ncccn2)c1C` [Example 206, 4-{[4-(2-Diethylaminoethyl)-3,5-dimethylpyrrol-2-yl]methylene}-3-(2-pyrimidinyl)-2-pyrazolin-5-one] yielded a melting point of 144 to 146 °C.
With `Cc1[nH]c(C=C2C(=O)NN=C2c2cnccn2)c(C)c1CN1CCC(O)CC1` [Example 178, 4-{[3,5-Dimethyl-4-(4-hydroxypiperidinomethyl)pyrrol-2-yl]methylene}-3-pyrazinyl-2-pyrazolin-5-one], the melting point lay within 255 to 257 °C.
In turn, `O=C1NN=C(C2CC2)C1=Cc1cc2ccccc2[nH]1` [Example 311, 3-Cyclopropyl-4-[(indol-2-yl)methylene]-2-pyrazolin-5-one] returned a melting point of 238 to 240 °C.
Then `CCOC1=NNC(=O)C1=Cc1cc([N+](=O)[O-])c[nH]1` [Example 153, 3-Ethoxy-4-[(4-nitropyrrol-2-yl)methylene]-2-pyrazolin-5-one], with 287 to 289 °C.
The figure for `CN(C)c1ccc(C=C2C(=O)NN=C2C2CC2)cc1` [Example 361, 3-Cyclopropyl-4-[(4-dimethylaminophenyl)methylene]-2-pyrazolin-5-one] is 280 to 289 °C; for `CC(C)OC1=NNC(=O)C1=Cc1cc2ccccc2[nH]1` [Example 306, 4-[(Indol-2-yl)methylene]-3-isopropoxy-2-pyrazolin-5-one] it is 221 to 223 °C; for `CCOC(=O)c1c(C)[nH]c(C=C2C(=O)NN=C2c2cccnc2)c1C` [Example 96, 4-[(3,5-dimethyl-4-ethoxycarbonylpyrrol-2-yl)methylene]-3-(3-pyridyl)-2-pyrazolin-5-one] it is 247 to 249 °C.
`COc1ccc(CC2=NNC(=O)C2=Cc2cn(CCCCO)c3ccccc23)cc1` [Example 224, 4-{[1-(4-hydroxybutyl)indol-3-yl]methylene}-3-(4-methoxybenzyl)-2-pyrazolin-5-one] yielded a melting point of 204 to 206 °C.
On to `Cc1c(CCC(=O)O)c[nH]c1C=C1C(=O)NN=C1Cc1ccccc1` [Example 7, 3-Benzyl-4-{[4-(2-carboxyethyl)-3-methylpyrrol-2-yl]methylene}-2-pyrazolin-5-one], for which the melting point is 270 to 272 °C.
In turn, `O=C1NN=C(C2CCCC2)C1=Cc1c[nH]c2ccccc12` [Example 247, 3-Cyclopentyl-4-[(indol-3-yl)methylene]-2-pyrazolin-5-one] displayed a melting point of 277 to 279 °C.
For `CN(C)c1ccc(C=C2C(=O)NN=C2Cc2ccccc2)cc1` [Example 358, 3-Benzyl-4-[(4-dimethylaminophenyl)methylene]-2-pyrazolin-5-one], the melting point lay within 253 to 255 °C.
Then `O=C1NN=C(C2CCC2)C1=Cc1ccc[nH]1` [Example 57, 3-Cyclobutyl-4-[(pyrrol-2-yl)methylene]-2-pyrazolin-5-one], with 150 to 152 °C.
The figure for `CC(C)C1=NN(C)C(=O)C1=Cc1c[nH]c2ccccc12` [Example 368, 4[(Indol-3-yl)methylene]-3-isopropyl-1-methyl-2-pyrazolin-5-one] is 241 to 242 °C; for `CCN(CC)CC(=O)c1c(C)[nH]c(C=C2C(=O)NN=C2c2cnccn2)c1C` [Example 196, 4-[(4-Diethylaminoacetyl-3,5-dimethylpyrrol-2-yl)methylene]-3-pyrazinyl-2-pyrazolin-5-one] it is 199 °C.
Turning to `COc1ccc2[nH]c(C=C3C(=O)NN=C3c3cnccn3)cc2c1` [Example 327, 4-[(5-Methoxyindol-2-yl)methylene]-3-pyrazinyl-2-pyrazolin-5-one], the melting point was in the range of 272 to 274 °C.
Take `O=C1NN=C(COc2ccc(Cl)cc2)C1=Cc1c[nH]c2ccccc12` [Example 214, 3-(4-Chlorophenyloxymethyl)-4-[(indol-3-yl)methylene]-2-pyrazolin-5-one]: the melting point is 264 to 267 °C.
The figure for `CC(C)OC1=NNC(=O)C1=Cc1cc2ccccc2n1C` [Example 315, 3-Isopropoxy-4-[(1-methylindol-2-yl)methylene]-2-pyrazolin-5-one] is 254 to 255 °C; for `Cc1cc(C)c(C=C2C(=O)NN=C2CCc2ccccc2)[nH]1` [Example 28, 4-[(3,5-Dimethylpyrrol-2-yl)methylene]-3-phenylethyl-2-pyrazolin-5-one] it is 186 to 187 °C.
The figure for `O=C1NN=C(Cc2ccccc2)C1=Cc1cn(CCCCO)c2ccccc12` [Example 211, 3-Benzyl-4-{[1-(4-hydroxybutyl)indol-3-yl]methylene}-2-pyrazolin-5-one] is 217 to 220 °C; for `CCN(CC)CCCCc1c(C)[nH]c(C=C2C(=O)NN=C2c2cnccn2)c1C` [Example 193, 4-{[4-(4-Diethylaminobutyl)-3,5-dimethylpyrrol-2-yl]methylene}-3-pyrazinyl-2-pyrazolin-5-one] it is 184 °C; for `Cc1[nH]c(C=C2C(=O)NN=C2c2cnccn2)c(C)c1CCNCc1ccncc1` [Example 204, 4-{{3,5-Dimethyl-4-[2-(4-pyridylmethylamino)ethyl]pyrrol-2-yl}methylene}-3-pyrazinyl-2-pyrazolin-5-one] it is 203 to 205 °C.
In turn, `Cc1[nH]c(C=C2C(=O)NN=C2OC(C)C)c(C)c1CN(C)C` [Example 86, 4-[(3,5-Dimethyl-4-dimethylaminomethylpyrrol-2-yl)methylene]-3-isopropoxy-2-pyrazolin-5-one] showed a melting point of 173 to 175 °C.
As to `O=C1NN=C(CCCc2ccccc2)C1=Cc1ccc[nH]1` [Example 26, 3-(3-Phenylpropyl)-4-[(pyrrol-2-yl)methylene]-2-pyrazolin-5-one], the melting point lay in the range of 169 to 170 °C.
On to `Cc1[nH]c(C=C2C(=O)NN=C2c2ccno2)c(C)c1CN1CCCCC1` [Example 168, 4-[(3,5-Dimethyl-4-piperidinomethylpyrrol-2-yl)methylene]-3-(5-isoxazolyl)-2-pyrazolin-5-one], for which the melting point is 215 to 217 °C.
`O=C1NN=C(c2cnccn2)C1=Cc1cc(C(=O)O)c[nH]1` [Example 137, 4-[(4-Carboxypyrrol-2-yl)methylene]-3-pyrazinyl-2-pyrazolin-5-one] gave a melting point of 230 to 232 °C.
`Cc1ccc(CCC2=NNC(=O)C2=Cc2ccc[nH]2)cc1` [Example 29, 3-(4-Methylphenylethyl)-4-[(pyrrol-2-yl)methylene]-2-pyrazolin-5-one] displayed a melting point of 153 to 154 °C.
Consider `Cc1c[nH]c(C=C2C(=O)NN=C2C(C)C)c1CCC(=O)O` [Example 55, 4-{(3-(2-Carboxyethyl)-4-methylpyrrol-2-yl]methylene}-3-isopropyl-2-pyrazolin-5-one], for which the melting point lay in the range of 229 to 231 °C.
Then `CCOC(=O)c1c[nH]c(C=C2C(=O)NN=C2C2CC2)c1` [Example 130, 3-Cyclopropyl-4-[(4-ethoxycarbonylpyrrol-2-yl)methylene]-2-pyrazolin-5-one], with 192 to 194 °C.
The molecule `Cn1cc(C=C2C(=O)NN=C2CCc2ccc(N)cc2)c2ccccc21` [Example 298, 3-(4-Aminophenylethyl)-4-[(1-methylindol-3-yl)methylene]-2-pyrazolin-5-one] returned a melting point of 192 to 193 °C.
Turning to `CCOC1=NNC(=O)C1=Cc1[nH]c(C)c(C(=O)CN(C)C)c1C` [Example 189, 4-[(3,5-Dimethyl-4-dimethylaminoacetylpyrrol-2-yl)methylene]-3-ethoxy-2-pyrazolin-5-one], the melting point came to 198 °C.
`Cc1n[nH]cc1C=C1C(=O)NN=C1C1CC1` [Example 363, 3-Cyclopropyl-4-[(3-methylpyrazol-4-yl)methylene]-2-pyrazolin-5-one] yielded a melting point of 265 to 267 °C.
Turning to `Cc1c[nH]c(C=C2C(=O)NN=C2OC(C)C)c1` [Example 41, 3-Isopropoxy-4-[(4-methylpyrrol-2-yl)methylene]-2-pyrazolin-5-one], the melting point lay in the range of 215 to 217 °C.
`O=C1NN=C(c2ccccc2)C1=Cc1c[nH]c2ncccc12` [Example 347, 4-[(7-Azaindol-3-yl)methylene]-3-phenyl-2-pyrazolin-5-one] showed a melting point of 280 to 282 °C.
`Cc1[nH]c(C=C2C(=O)NN=C2C2CC2)c(C)c1CCO` [Example 184, 3-Cyclopropyl-4-{[3,5-Dimethyl-4-(2-hydroxyethyl)pyrrol-2-yl]methylene}-2-pyrazolin-5-one] came in with a melting point of 244 to 246 °C.
The figure for `COc1ccc2nc(C3=NNC(=O)C3=Cc3c[nH]c4ccccc34)sc2c1` [Example 272, 4-[(Indol-3-yl)methylene]-3-(6-methoxybenzothiazol-2-yl)-2-pyrazolin-5-one] is over 300 °C; for `O=C1NN=C(c2cnccn2)C1=Cc1cc2c([nH]1)CCC=C2Cl` [Example 330, 4-[(4-Chloro-6,7-dihydroindol-2-yl)methylene]-3-pyrazinyl-2-pyrazolin-5-one] it is 206 to 209 °C.
